# Source: ChEMBL document CHEMBL5465560, “Selectivity Literature for EUbOPEN Chemogenomic Library” (2024)
# Columns and labels:
# [1] = target: Epidermal growth factor receptor (Homo sapiens, UniProt P00533); assay: Selectivity interaction (Radiometric kinase assay (using 10 uM ATP)) EUB0000601a EGFR
# [2] = target: Histone-lysine N-methyltransferase 2A (Homo sapiens) (UniProt Q03164); assay: Selectivity interaction (Methyltransferase screen (radiometric assays, panel of 8 PRMTs, 21 protein lysine methyltransferases, 3 DNA methyltransferases, and one RNA methyltransferase)) EUB0000272b MLL
# [3] = target: Cyclin-dependent kinase 3 (Homo sapiens) (UniProt Q00526); assay: Selectivity interaction (Ambit KINOMEscan and KiNATiv profiling in Jurkat cells) EUB0000090b CDK3; type: cell-based; details: at 1 µM
# [4] = target: Calcium/calmodulin-dependent protein kinase type II subunit alpha (Homo sapiens, UniProt Q9UQM7); assay: Selectivity interaction (Ambit KINOMEscan and KiNATiv profiling in Jurkat cells) EUB0000090b CAMK2A; type: cell-based; details: at 1 µM
# [5] = target: NT-3 growth factor receptor (Homo sapiens, UniProt Q16288); details: at 10 µM
# [6] = target: Mitogen-activated protein kinase kinase kinase 11 (Homo sapiens) (UniProt Q16584); assay: Selectivity interaction (ActivX KiNativ screen (kinase selectivity in THP-1 cell lysates)) EUB0000639a MAP3K11; type: subcellular; details: lysate, at 1 µM
# [7] = target: 5'-AMP-activated protein kinase catalytic subunit alpha-2 (Homo sapiens) (UniProt P54646); assay: Selectivity interaction (ActivX KiNativ screen (kinase selectivity in THP-1 cell lysates)) EUB0000639a PRKAA2; type: subcellular; details: lysate, at 0.01 µM
# [8] = target: T1, Eukaryotic translation initiation factor 2-alpha kinase 3 (Homo sapiens) (UniProt Q9NZJ5); assay: Selectivity interaction (ProQinase) EUB0000171b EIF2AK3
# T1 sequence (whole entry): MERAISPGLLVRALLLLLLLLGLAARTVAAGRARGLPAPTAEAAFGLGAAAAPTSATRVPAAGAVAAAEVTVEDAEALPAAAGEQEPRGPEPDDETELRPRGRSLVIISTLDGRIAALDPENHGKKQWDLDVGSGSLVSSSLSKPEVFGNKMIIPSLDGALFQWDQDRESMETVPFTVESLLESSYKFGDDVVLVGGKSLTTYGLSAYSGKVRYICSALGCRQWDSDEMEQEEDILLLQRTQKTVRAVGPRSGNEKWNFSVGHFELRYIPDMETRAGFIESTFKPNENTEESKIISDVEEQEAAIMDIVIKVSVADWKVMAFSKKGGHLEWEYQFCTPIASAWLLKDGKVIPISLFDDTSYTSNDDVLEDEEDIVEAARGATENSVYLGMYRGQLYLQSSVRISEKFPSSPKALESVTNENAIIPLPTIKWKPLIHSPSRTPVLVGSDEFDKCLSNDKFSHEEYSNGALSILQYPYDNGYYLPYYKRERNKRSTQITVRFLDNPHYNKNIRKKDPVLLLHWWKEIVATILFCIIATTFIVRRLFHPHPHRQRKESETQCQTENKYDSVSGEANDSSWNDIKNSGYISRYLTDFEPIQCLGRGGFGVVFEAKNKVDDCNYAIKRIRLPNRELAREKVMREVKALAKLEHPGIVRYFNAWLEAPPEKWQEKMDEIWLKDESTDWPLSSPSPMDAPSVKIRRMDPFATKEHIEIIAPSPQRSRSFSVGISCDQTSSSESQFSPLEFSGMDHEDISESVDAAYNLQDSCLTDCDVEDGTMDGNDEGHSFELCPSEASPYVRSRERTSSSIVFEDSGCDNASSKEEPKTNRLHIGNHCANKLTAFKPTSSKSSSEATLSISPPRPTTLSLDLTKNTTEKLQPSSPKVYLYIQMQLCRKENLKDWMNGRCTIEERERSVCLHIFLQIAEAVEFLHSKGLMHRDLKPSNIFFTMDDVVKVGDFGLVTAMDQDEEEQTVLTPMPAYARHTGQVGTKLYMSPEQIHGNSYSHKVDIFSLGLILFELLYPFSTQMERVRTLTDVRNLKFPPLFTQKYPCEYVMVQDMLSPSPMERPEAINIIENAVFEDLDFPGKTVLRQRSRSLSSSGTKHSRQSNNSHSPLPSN
# [9] = target: T2, Muscarinic acetylcholine receptor M1 (Homo sapiens) (UniProt P11229); assay: Selectivity interaction (Panel of kinases, GPCRs, ion channels and transporters (enzymatic assay)) EUB0000223bCl CHRM1
# T2 sequence (whole entry): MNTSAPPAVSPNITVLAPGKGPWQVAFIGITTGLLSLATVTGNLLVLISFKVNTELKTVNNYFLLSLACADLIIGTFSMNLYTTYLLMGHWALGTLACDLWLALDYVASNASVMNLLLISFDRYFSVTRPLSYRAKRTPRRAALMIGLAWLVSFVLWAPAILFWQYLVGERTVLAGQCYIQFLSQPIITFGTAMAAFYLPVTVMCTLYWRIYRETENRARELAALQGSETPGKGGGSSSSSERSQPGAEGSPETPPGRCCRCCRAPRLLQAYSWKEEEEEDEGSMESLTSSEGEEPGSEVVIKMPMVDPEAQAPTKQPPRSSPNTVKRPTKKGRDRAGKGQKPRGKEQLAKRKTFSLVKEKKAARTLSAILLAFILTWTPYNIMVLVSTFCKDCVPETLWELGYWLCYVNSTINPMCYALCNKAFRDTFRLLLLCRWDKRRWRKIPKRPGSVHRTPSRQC
# [10] = target: Nuclear body protein SP140-like protein (Homo sapiens) (UniProt Q9H930); assay: Selectivity interaction (Human bromodomain panel (DSF assay)) EUB0000233b SP140L
# [11] = target: T3, Interleukin-1 receptor-associated kinase 4 (Homo sapiens) (UniProt Q9NWZ3); assay: Selectivity interaction (KinomeScan (DiscoverX)) EUB0001550a IRAK4; details: at 1 µM
# T3 sequence (whole entry): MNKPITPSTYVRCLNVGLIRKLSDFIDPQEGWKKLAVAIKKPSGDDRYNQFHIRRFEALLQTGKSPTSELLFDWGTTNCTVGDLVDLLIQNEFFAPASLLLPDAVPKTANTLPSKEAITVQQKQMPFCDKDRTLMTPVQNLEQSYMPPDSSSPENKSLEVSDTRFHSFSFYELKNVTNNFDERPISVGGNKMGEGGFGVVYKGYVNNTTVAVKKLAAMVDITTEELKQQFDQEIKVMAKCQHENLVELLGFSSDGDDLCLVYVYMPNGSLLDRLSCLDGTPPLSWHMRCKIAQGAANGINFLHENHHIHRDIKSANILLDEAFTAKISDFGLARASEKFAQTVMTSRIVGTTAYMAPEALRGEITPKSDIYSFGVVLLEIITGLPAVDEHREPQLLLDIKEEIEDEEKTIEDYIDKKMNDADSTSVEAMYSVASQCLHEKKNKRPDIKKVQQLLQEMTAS
# [12] = target: Mitogen-activated protein kinase 4 (Homo sapiens) (UniProt P31152); assay: Selectivity interaction (KinomeScan (DiscoverX)) EUB0000695a MAPK4; details: at 100 nM
# Mitogen-activated protein kinase 4 (Homo sapiens), sequence (P31152 whole entry): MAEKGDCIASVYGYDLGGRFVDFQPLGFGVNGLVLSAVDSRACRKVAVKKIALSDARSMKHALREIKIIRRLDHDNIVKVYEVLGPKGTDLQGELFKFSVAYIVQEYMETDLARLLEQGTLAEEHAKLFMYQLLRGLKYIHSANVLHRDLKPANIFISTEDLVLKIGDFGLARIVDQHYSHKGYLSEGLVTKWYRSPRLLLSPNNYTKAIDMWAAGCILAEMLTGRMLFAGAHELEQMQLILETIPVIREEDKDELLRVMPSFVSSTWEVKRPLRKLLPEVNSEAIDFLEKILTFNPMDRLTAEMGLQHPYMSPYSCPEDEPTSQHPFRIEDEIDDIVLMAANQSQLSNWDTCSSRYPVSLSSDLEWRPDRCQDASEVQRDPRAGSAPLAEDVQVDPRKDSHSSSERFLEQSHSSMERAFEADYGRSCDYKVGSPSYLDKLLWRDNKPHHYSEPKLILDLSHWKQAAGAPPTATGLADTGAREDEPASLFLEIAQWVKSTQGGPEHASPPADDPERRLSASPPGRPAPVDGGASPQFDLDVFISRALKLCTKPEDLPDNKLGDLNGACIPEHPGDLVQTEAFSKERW
# Histone-lysine N-methyltransferase 2A (Homo sapiens), sequence (Q03164 1-2718 limits assumed): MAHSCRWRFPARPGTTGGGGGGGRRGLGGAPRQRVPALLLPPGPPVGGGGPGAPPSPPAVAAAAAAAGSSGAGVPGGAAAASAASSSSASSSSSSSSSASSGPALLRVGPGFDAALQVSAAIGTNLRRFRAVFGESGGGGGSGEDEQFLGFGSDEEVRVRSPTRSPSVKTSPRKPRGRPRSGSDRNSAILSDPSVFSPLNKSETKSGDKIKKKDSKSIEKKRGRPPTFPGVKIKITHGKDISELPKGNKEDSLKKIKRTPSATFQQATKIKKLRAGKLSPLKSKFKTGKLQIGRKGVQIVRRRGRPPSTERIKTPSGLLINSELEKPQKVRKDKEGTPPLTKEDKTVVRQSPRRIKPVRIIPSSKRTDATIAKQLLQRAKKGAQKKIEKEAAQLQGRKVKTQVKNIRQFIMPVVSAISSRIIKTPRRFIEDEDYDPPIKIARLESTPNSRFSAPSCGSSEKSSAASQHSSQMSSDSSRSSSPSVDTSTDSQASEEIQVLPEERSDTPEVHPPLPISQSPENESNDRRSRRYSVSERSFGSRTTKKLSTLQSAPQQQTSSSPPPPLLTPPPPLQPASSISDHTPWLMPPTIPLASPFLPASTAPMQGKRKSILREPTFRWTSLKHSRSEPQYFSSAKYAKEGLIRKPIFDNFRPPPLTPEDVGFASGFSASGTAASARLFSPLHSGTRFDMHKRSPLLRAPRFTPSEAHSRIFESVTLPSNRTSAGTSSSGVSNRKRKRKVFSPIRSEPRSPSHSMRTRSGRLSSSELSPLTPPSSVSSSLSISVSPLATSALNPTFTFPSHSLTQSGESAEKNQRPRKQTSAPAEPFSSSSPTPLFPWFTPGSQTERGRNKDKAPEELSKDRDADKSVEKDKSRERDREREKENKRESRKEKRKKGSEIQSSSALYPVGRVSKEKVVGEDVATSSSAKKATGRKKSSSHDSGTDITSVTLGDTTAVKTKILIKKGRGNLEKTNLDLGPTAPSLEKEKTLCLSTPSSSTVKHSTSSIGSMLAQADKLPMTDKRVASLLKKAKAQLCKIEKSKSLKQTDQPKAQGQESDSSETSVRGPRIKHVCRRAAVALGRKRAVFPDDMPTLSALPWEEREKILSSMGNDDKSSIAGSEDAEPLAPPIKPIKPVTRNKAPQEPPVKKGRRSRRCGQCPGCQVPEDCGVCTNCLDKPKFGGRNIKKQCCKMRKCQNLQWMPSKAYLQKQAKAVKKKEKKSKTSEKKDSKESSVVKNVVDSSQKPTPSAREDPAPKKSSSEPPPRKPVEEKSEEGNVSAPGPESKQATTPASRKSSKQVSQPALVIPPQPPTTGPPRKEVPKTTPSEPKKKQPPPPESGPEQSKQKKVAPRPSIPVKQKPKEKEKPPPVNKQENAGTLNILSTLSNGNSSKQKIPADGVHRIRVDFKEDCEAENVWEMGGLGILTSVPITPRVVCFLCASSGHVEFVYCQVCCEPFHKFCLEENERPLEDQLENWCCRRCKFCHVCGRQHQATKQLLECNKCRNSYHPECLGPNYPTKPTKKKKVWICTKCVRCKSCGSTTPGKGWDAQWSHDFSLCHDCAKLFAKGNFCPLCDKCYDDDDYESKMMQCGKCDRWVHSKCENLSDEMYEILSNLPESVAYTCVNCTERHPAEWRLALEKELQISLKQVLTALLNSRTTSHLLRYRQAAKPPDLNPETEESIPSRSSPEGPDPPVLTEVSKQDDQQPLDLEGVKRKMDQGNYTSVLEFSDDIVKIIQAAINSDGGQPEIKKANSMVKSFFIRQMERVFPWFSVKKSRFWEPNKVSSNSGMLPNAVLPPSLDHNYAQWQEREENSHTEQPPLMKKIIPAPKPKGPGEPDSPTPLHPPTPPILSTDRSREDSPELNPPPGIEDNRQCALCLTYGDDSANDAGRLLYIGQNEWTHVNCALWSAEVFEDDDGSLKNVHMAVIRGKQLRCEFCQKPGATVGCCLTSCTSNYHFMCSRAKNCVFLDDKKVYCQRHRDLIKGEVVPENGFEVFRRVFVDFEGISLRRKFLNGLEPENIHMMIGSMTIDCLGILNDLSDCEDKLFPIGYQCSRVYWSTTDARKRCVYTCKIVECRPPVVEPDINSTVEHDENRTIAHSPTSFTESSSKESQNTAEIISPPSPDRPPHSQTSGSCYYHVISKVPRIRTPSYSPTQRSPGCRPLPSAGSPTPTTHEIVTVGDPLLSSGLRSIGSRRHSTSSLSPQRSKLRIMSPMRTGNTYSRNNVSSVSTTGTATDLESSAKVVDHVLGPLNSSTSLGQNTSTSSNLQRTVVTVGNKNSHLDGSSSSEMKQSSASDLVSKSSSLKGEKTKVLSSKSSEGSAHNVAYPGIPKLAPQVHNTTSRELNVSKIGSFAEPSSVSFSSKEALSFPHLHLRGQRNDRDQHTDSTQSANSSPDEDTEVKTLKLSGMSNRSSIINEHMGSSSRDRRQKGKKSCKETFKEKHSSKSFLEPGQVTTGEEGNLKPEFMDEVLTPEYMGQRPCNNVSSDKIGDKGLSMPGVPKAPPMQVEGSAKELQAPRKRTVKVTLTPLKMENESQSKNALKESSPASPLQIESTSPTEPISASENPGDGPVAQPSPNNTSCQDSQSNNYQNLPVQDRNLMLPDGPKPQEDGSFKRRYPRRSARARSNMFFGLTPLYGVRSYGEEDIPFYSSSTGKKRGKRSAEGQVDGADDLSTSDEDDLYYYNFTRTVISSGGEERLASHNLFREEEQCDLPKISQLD
# Histone-lysine N-methyltransferase 2A (Homo sapiens), sequence (Q03164 2719-3969 limits assumed): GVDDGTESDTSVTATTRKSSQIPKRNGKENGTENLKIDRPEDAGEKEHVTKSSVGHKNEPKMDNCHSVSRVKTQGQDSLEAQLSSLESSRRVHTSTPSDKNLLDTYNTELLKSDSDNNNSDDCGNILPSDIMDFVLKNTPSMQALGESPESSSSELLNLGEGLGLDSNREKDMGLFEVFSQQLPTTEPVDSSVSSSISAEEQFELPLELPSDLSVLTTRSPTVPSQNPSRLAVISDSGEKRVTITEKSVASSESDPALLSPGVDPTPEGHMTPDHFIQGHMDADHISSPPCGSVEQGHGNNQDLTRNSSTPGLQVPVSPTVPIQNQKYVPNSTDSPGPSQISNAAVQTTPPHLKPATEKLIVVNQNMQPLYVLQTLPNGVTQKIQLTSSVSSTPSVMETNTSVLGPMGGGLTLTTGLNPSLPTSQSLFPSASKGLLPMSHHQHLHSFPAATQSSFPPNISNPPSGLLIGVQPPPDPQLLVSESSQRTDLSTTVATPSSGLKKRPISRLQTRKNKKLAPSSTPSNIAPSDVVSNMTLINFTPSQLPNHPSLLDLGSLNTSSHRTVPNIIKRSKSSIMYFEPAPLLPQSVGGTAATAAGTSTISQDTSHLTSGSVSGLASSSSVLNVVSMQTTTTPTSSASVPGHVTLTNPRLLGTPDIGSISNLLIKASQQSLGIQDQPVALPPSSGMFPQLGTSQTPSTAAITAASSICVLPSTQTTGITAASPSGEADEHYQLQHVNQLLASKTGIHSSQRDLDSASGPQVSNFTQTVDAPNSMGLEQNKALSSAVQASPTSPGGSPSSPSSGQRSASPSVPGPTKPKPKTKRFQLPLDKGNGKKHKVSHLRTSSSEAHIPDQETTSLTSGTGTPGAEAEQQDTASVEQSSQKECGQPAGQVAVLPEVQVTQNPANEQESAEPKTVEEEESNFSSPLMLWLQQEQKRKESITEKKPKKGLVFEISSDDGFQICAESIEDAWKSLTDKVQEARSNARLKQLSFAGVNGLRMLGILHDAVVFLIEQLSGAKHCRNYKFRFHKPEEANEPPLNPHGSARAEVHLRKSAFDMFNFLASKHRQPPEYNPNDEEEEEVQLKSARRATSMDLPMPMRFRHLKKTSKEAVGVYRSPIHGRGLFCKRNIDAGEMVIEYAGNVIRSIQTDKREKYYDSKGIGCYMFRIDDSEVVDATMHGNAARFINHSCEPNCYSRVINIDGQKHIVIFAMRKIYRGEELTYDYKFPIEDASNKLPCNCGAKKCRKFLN
# 5'-AMP-activated protein kinase catalytic subunit alpha-2 (Homo sapiens), sequence (P54646 whole entry, looked up): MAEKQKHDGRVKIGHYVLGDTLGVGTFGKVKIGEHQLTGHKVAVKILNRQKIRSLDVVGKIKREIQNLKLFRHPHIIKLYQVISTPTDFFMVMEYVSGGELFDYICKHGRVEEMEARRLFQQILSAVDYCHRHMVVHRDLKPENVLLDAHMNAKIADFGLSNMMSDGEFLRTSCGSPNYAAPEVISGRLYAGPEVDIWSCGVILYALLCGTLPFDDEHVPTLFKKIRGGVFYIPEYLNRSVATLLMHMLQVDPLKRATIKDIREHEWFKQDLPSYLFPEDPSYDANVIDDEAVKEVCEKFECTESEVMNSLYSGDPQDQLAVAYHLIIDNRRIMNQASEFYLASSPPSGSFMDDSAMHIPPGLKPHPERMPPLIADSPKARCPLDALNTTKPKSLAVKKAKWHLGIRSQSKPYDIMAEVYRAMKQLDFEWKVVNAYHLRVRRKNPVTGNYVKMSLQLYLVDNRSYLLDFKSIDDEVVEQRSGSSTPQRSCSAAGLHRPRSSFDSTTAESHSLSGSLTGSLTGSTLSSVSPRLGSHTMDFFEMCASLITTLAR
smiles,measurement,setting,value
CCc1cc(Nc2nccc(-c3c(-c4ccc(OC)c(C(=O)Nc5c(F)cccc5F)c4)nc4ccccn34)n2)c(OC)cc1N1CCC(N2CCN(S(C)(=O)=O)CC2)CC1,IC50,[1],> 10 µM
Cc1cc(C)cc([C@H]2c3cc(C)ccc3NC(=O)CN2C(=O)c2ccc(Br)s2)c1,% of activity,[2]; at 1 µM,99.3%
same,% of activity,[2]; at 10 µM,100%
CN(C)C/C=C/C(=O)Nc1ccc(C(=O)N2CCCC(Nc3ncc(Cl)c(-c4c[nH]c5ccccc45)n3)C2)cc1 (centres undefined),% of control,[3],97%
same,% of control,[4],99%
Cc1cc([C@@H](C)Nc2ccccc2C(=O)O)c2nc(N3CCOCC3)cc(=O)n2c1 [AZD-6482],% of control,[5],98%
CC[C@@H]1[C@H](F)C(=O)N[C@@H]1COc1nccc2cc(C(N)=O)c(OC)cc12 [ZIMLOVISERTIB],% of inhibition,[6],-22.3%
same,% of inhibition,[7],14.5%
C=CC(=O)Nc1cccc(C(=O)Nc2ccc(Nc3cc(-c4[nH]c(SC)nc4C)ccn3)cc2)c1,% of control,[8]; at 1 µM,92%
same,% of control,[8]; at 5 µM,97%
COc1cc(C(=O)N2CC[C@@H](O)[C@@H](N)C2)cc2nc(-c3cc4ccccc4n3CC3CC3)n(C)c12,pXC50,[9],5.3 M
CN(C)CCCOc1ccc(-c2cc(NCCCn3cccn3)nc(S(C)(=O)=O)n2)cc1,dTM,[10],< 2 K
CN(C)CC#Cc1ccc2[nH]c3c(c2c1)-c1nc(N)ncc1CCC3,% of control,[11],21%
Cc1cc(F)c(C(=O)Nc2cccc(-c3nncn3C(C)C)n2)cc1-n1cnc(C2CC2)c1,% of control,[12],100%
